± gives the standard deviation of the averaged measurements or the uncertainty stated by the source.
Key:
Details in all cases: exposure: chronic from day 1 of adulthood, single dose per compound (concentration not stated in sheet)
[1] = tested on: Caenorhabditis elegans N2; test: mean adult lifespan of treated cohort (days); higher = longer lifespan
Protocol: (§1)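 Caenorhabditis lifespan assay (CITP). Synchronised hermaphrodites were moved on the first day of adulthood onto 35 mm NGM plates with live E. coli OP50-1 and 51 uM FUdR, with the compound spread on the plate. Worms were kept at 20 C and scored for survival.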

[2] = tested on: Caenorhabditis elegans MY16; test: as above
Protocol: as §1

[3] = tested on: Caenorhabditis briggsae JU1348; test: as above
Protocol: as §1

[4] = tested on: Caenorhabditis briggsae AF16; test: as above
Protocol: as §1

[5] = tested on: Caenorhabditis briggsae HK104; test: as above
Protocol: as §1

[6] = tested on: Caenorhabditis elegans JU775; test: as above
Protocol: as §1

[7] = tested on: Caenorhabditis elegans N2; test: Kaplan-Meier median lifespan of treated cohort (days); higher = longer lifespan
Protocol: as §1

[8] = tested on: Caenorhabditis elegans MY16; test: as above
Protocol: as §1

[9] = tested on: Caenorhabditis briggsae JU1348; test: as above
Protocol: as §1

[10] = tested on: Caenorhabditis briggsae AF16; test: as above
Protocol: as §1

[11] = tested on: Caenorhabditis briggsae HK104; test: as above
Protocol: as §1

[12] = tested on: Caenorhabditis elegans JU775; test: as above
Protocol: as §1

SMILES	mean adult lifespan of treated cohort [1]	mean adult lifespan of treated cohort [2]	mean adult lifespan of treated cohort [3]	mean adult lifespan of treated cohort [4]	mean adult lifespan of treated cohort [5]	mean adult lifespan of treated cohort [6]	Kaplan-Meier median lifespan [7]	Kaplan-Meier median lifespan [8]	Kaplan-Meier median lifespan [9]	Kaplan-Meier median lifespan [10]	Kaplan-Meier median lifespan [11]	Kaplan-Meier median lifespan [12]
O=C(O)CCCCC1CCSS1 (stereo not drawn) [alpha-lipoic acid]	19.2 ± 0.4	16.3 ± 0.61	26.4 ± 0.83	27.5 ± 0.76	35.9 ± 0.96	18.3 ± 0.61	19.2 ± 1.5	15.6 ± 2.1	25.8 ± 1.5	28.4 ± 3.2	37.2 ± 1.3	18.4 ± 4.2
CC(=O)Oc1ccccc1C(=O)O [aspirin]	17.9 ± 0.3	17 ± 0.49	28 ± 1.1	27 ± 0.81	37.2 ± 1	18.3 ± 0.55	17.5 ± 1.1	16.4 ± 1.4	28.3 ± 4.4	27.8 ± 3.7	37.5 ± 1.9	17.4 ± 4.3
COc1cc(/C=C/C(=O)CC(=O)/C=C/c2ccc(O)c(OC)c2)ccc1O [curcumin]	17.1 ± 0.34	15.6 ± 0.46	21.3 ± 0.66	21.9 ± 0.82	30.5 ± 0.87	19.5 ± 0.66	17.7 ± 0.82	15.3 ± 1.6	21.2 ± 2.8	23.2 ± 1.7	30.7 ± 2.2	19.3 ± 2
O=c1c(O)c(-c2ccc(O)c(O)c2)oc2cc(O)cc(O)c12 [quercetin]	17.6 ± 0.32	15.9 ± 0.49	25.2 ± 0.76	26.5 ± 0.79	33 ± 0.87	17.4 ± 0.69	17.8 ± 0.96	15 ± 1.8	24.8 ± 2.5	28 ± 2.2	35.5 ± 1.7	15.2 ± 2.1
CCCC(CCC)C(=O)O [valproic acid]	17.6 ± 0.42	14.7 ± 0.48	21.9 ± 0.85	21.8 ± 0.98	32.9 ± 0.96	18.2 ± 0.56	17.6 ± 0.54	14.6 ± 0.98	21.9 ± 1.2	22 ± 2.6	35.3 ± 1.9	17.4 ± 3.1

Reference: the supplement of paper PMC5321775
